From patent US20050208146A1, “Novel dosage and administration method for oral camptosar” (Pfizer Inc, priority 2003, published 2005)
Values joined by “and” are separate entries in the source; they are usually repeats but may differ in a detail not shown here. Identical values can stand only once. “Also recorded” adds a separate entry of the source.

How the values were obtained:
[1] = clinical; conditions: for AUC(0-inf): 60 mg/m2, AUC0-inf; for Cmax: 60 mg/m2, Cmax
Method: (§1) The protocol had two stages, Stage A directed to dose escalation and Stage B directed to pharmacokinetics and bioavailability measurement. Patients were treated as in Table 3. […] MTD is defined as the dose level below which 2/3 or preferably 2/6 patients experience DLT.
(§2) In addition, evidence of antitumor activity can be evaluated.

[2] = clinical; conditions: human
[3] = Dose escalation to MTD, DLT and grade 3/4 toxicities of oral irinotecan semi-solid matrix capsules in patients with solid tumors; assay type: in vivo, human; conditions: for DLT (kind and grade) / Pts with DLT: first cycle
Method: Patients were treated as in Table 3. […]
Oral irinotecan can be formulated as follows.
The patients received starting doses of 50 (n=7), 60 (n=32), or 70 (n=4) mg/m^2/d. […] See also Tables 6 and 7.

[4] = test system: solid tumors; experiment: Best overall tumor response in patients treated with oral irinotecan; assay type: in vivo, human; conditions: oral irinotecan daily x5 q 3 weeks
Method: as §1, §2

[5] = Comparison of exposure over 6-week period, oral vs IV irinotecan
[6] = All Cycles, 60 mg/m^2/day, N=32
[7] = plasma, irinotecan 60 mg/m^2 IV, N=14
[8] = plasma, irinotecan 60 mg/m^2 PO, N=14
[9] = IV Irinotecan, weekly x 4 q 6 weeks x 1 cycle, N=99

SMILES: CCc1c2c(nc3ccc(OC(=O)N4CCC(N5CCCCC5)CC4)cc13)-c1cc3c(c(=O)n1C2)COC(=O)[C@]3(O)CC [irinotecan, 7-ethyl-10-[4-(1-piperidino)-1-piperidino]-carbonyloxycamptothecin]
- bioavailability ([1]; human, in vivo, Absolute bioavailabiity of irinotecan, Mean ± SD): 24 ± 23%
- bioavailability ([1]; human, in vivo, Absolute bioavailabiity of irinotecan, Median): 15.4%
- bioavailability ([1]; human, in vivo, Absolute bioavailabiity of irinotecan, range): 7.1 to 96%
- Tmax ([1]; human, in vivo, iv, 60 mg/m2): End of 1.5-h
- AUC(0-inf) ([1]; human, in vivo, iv, mean ± SD): 3.02 ± 0.83 µg·h/mL
- AUC(0-inf) ([1]; human, in vivo, iv, median): 2.61 µg·h/mL
- AUC(0-inf) ([1]; human, in vivo, iv, range): 1.72 to 4.79 µg·h/mL
- Cmax ([1]; human, in vivo, iv, mean ± SD): 0.627 ± 0.142 µg/mL
- Cmax ([1]; human, in vivo, iv, median): 0.593 µg/mL
- Cmax ([1]; human, in vivo, iv, range): 0.416 to 0.897 µg/mL
- tmax, mean ± SD ([1]; human, in vivo, po, 60 mg/m2): 3.15 ± 2.00 h
- AUC(0-inf) ([1]; human, in vivo, po, mean ± SD): 0.732 ± 0.665 µg·h/mL
- AUC(0-inf) ([1]; human, in vivo, po, median): 0.619 µg·h/mL
- AUC(0-inf) ([1]; human, in vivo, po, range): 0.167 to 2.5 µg·h/mL
- Cmax ([1]; human, in vivo, po, mean ± SD): 0.0731 ± 0.0676 µg/mL
- Cmax ([1]; human, in vivo, po, median, plasma, irinotecan 60 mg/m^2 PO, N=14): 0.0601 µg/mL
- Cmax ([1]; human, in vivo, po, range, plasma, irinotecan 60 mg/m^2 PO, N=14): 0.00949 to 0.274 µg/mL
- Tmax ([1]; human, in vivo, po, 60 mg/m2, tmax, mean ± SD): 3 ± 2.2 h
- Tmax ([1]; human, in vivo, po, 60 mg/m2, tmax, range): 1 to 10 h
- bioavailability ([1]; human, in vivo, po, absolute bioavailability (mean±SD)): 25 ± 23%
- AUC(0-inf) ([2]; in vivo, iv): 42 µg·h/mL
- Cmax ([2]; in vivo, iv): 1.5 µg/mL
- AUC(0-inf) ([2]; plasma, po, 60 mg/m^2/daily): 7.32 µg·h/mL
- Cmax ([2]; plasma, po, 60 mg/m^2/daily): 0.0731 µg/mL
- Grade 3 and 4 Diarrhea ([3]; All Cycles, 50 mg/m^2/day, N=7): 14%
- Grade 3 and 4 Nausea ([3]; All Cycles, 50 mg/m^2/day, N=7): 14%
- Grade 3 and 4 Diarrhea [3, 6]: 16%
- Grade 3 and 4 Nausea [3, 6]: 9%
- Grade 3 and 4 Neutropenia [3, 6]: 9%
- Grade 3 and 4 Neutropenic Fever [3, 6]: 3%
- Grade 3 and 4 Vomiting [3, 6]: 12%
- Grade 3 and 4 Diarrhea ([3]; All Cycles, 70 mg/m^2/day, N=4): 50%
- Grade 3 and 4 Nausea ([3]; All Cycles, 70 mg/m^2/day, N=4): 3%
- Grade 3 and 4 Neutropenia ([3]; All Cycles, 70 mg/m^2/day, N=4): 25%
- Grade 3 and 4 Neutropenic Fever ([3]; All Cycles, 70 mg/m^2/day, N=4): 25%
- Grade 3 and 4 Vomiting ([3]; All Cycles, 70 mg/m^2/day, N=4): 3%
- Grade 3 and 4 Diarrhea ([3]; Cycle 1, 50 mg/m^2/day, N=7): 14%
- Grade 3 and 4 Nausea ([3]; Cycle 1, 50 mg/m^2/day, N=7): 14%
- Grade 3 and 4 Diarrhea ([3]; Cycle 1, 60 mg/m^2/day, N=32): 13%
- Grade 3 and 4 Nausea ([3]; Cycle 1, 60 mg/m^2/day, N=32): 6%
- Grade 3 and 4 Neutropenia ([3]; Cycle 1, 60 mg/m^2/day, N=32): 3%
- Grade 3 and 4 Vomiting ([3]; Cycle 1, 60 mg/m^2/day, N=32): 9%
- Grade 3 and 4 Diarrhea ([3]; Cycle 1, 70 mg/m^2/day, N=4): 50%
- Grade 3 and 4 Neutropenia ([3]; Cycle 1, 70 mg/m^2/day, N=4): 25%
- Grade 3 and 4 Neutropenic Fever ([3]; Cycle 1, 70 mg/m^2/day, N=4): 25%
- recommended phase 11 dose ([3]; SSM oral irinotecan, for 5 days every 3 wks): 60 mg/m^2/daily
- DLT (kind and grade) ([3]; Stage A, 50 mg/m^2/day oral): G3 diarrhea, G3 nausea, G3 dehydration; also recorded: Gr. 3 Nausea; also recorded: Gr. 3 Diarrhea; also recorded: Gr. 3 Dehydration
- Pts with DLT ([3]; Stage A, 50 mg/m^2/day oral, 7 evaluable): 1/7 and 1
- DLT (kind and grade) ([3]; Stage A, 60 mg/m^2/day oral): None
- Pts with DLT ([3]; Stage A, 60 mg/m^2/day oral, 8 evaluable): 0/8 and 0
- DLT (kind and grade) ([3]; Stage A, 70 mg/m^2/day oral): G3 diarrhea, G4 ANC [absolute neutrophil counts]; G4 diarrhea, fever, dehydration, fatigue; also recorded: Pt 1: gr. 3 Diarrhea,; also recorded: Pt 2: gr. 4 Diarrhea,; also recorded: gr. 4 Dehydration
- Pts with DLT ([3]; Stage A, 70 mg/m^2/day oral, 4 evaluable): 2/4 and 2
- DLT (kind and grade) ([3]; Stage B, 60 mg/m^2/day oral): Pt 1: Gr. 3 Diarrhea; also recorded: Pt 2: Gr. 3 Dehydration; also recorded: Pt 7: Gr. 3 Diarrhea
- Pts with DLT ([3]; Stage B, 60 mg/m^2/day oral, 24 evaluable): 7
- MTD ([3]; oral, encapsulated semi-solid matrix, daily x5 q 3 weeks): 60 mg/m^2/day
- best overall tumor response: partial responses ([4]; esophageal and small cell lung cancer): Two confirmed partial responses
- best overall tumor response: stable disease cases ([4]; variety of tumor types): thirteen stable disease cases

SMILES: CCc1c2c(nc3ccc(O)cc13)-c1cc3c(c(=O)n1C2)COC(=O)[C@]3(O)CC [SN-38, 7-ethyl-10-hydroxycamptothecin]
- AUC0-inf, mean ± SD ([1]; irinotecan 60 mg/m^2 IV, N=14): 0.167 ± 0.0778 µg·h/mL
- AUC0-inf, median ([1]; irinotecan 60 mg/m^2 IV, N=14): 0.169 µg·h/mL
- AUC0-inf, range ([1]; irinotecan 60 mg/m^2 IV, N=14): 0.0551 to 0.358 µg·h/mL
- t1/2, mean ± SD ([1]; irinotecan 60 mg/m^2 IV, N=14): 22.95 ± 19.41 h
- t1/2, median ([1]; irinotecan 60 mg/m^2 IV, N=14): 19.31 h
- t1/2, range ([1]; irinotecan 60 mg/m^2 IV, N=14): 8.63 to 94.9 h
- tmax, median ([1]; irinotecan 60 mg/m^2 IV, N=14): 0.5 h
- tmax, range ([1]; irinotecan 60 mg/m^2 IV, N=14): 0 to 2.0 h
- tmax, mean ± SD ([1]; irinotecan 60 mg/m^2 IV, N=14, measured from start of 1.5-h infusion): 2.18 ± 1.99^2 h
- PO/IV SN-38 AUC Ratio, Mean ± SD ([1]; irinotecan 60 mg/m^2 PO vs IV): 0.504±0.195
- PO/IV SN-38 AUC Ratio, Median ([1]; irinotecan 60 mg/m^2 PO vs IV): 0.447
- PO/IV SN-38 AUC Ratio, range ([1]; irinotecan 60 mg/m^2 PO vs IV): 0.257-0.945
- AUC0-inf, mean ± SD ([1]; irinotecan 60 mg/m^2 PO, N=14): 0.0841 ± 0.0547 µg·h/mL
- AUC0-inf, median ([1]; irinotecan 60 mg/m^2 PO, N=14): 0.0707 µg·h/mL
- AUC0-inf, range ([1]; irinotecan 60 mg/m^2 PO, N=14): 0.0228 to 0.2236 µg·h/mL
- t1/2, mean ± SD ([1]; irinotecan 60 mg/m^2 PO, N=14): 14.2 ± 5.87 h
- t1/2, median ([1]; irinotecan 60 mg/m^2 PO, N=14): 13.4 h
- t1/2, range ([1]; irinotecan 60 mg/m^2 PO, N=14): 4.7 to 25.7 h
- tmax, mean ± SD ([1]; irinotecan 60 mg/m^2 PO, N=14): 2.97 ± 2.21 h
- tmax, median ([1]; irinotecan 60 mg/m^2 PO, N=14): 2 h
- tmax, range ([1]; irinotecan 60 mg/m^2 PO, N=14): 1.0 to 10.0 h
- AUC of SN-38 following oral irinotecan as % of the value from an equivalent IV dose (mean±SD) ([1]; oral vs equivalent IV dose of irinotecan): 50±20%
- Cmax, mean ± SD [1, 7]: 0.01594 ± 0.00783 µg/mL
- Cmax, median [1, 7]: 0.0138 µg/mL
- Cmax, range [1, 7]: 0.00726 to 0.0369 µg/mL
- Cmax, mean ± SD [1, 8]: 0.00717 ± 0.0039 µg/mL
- Cmax, median [1, 8]: 0.00391 µg/mL
- Cmax, range [1, 8]: 0.00131 to 0.0148 µg/mL
- AUC0-inf, exposure over 6-week period [5, 9]: 1,068 ng h/ml
- Cmax [5, 9]: 0.028 µg/mL
- Cmax ([5]; Oral Irinotecan, daily x 5 q 3 weeks x 2 cycles, N=14): 0.0072 µg/mL
